Measurements as given in paper PMC9395446, “First-in-human phase 1/1b study to evaluate sitravatinib in patients with advanced solid tumors” (Investigational New Drugs, 2022).

Experiment: Safety in phase 1/1b study (DLTs, TRAEs, TEAEs; CTCAE v4.03)
Type: in vivo, human
Excerpt: Safety assessments included evaluation of DLTs, AEs, physical examinations, vital sign measurements, electrocardiogram recordings and laboratory tests.
A DLT was defined as a grade ≥ 4 hematologic abnormality lasting ≥ 4 days; grade 3 thrombocytopenia with clinically significant bleeding; febrile neutropenia; clinically significant grade ≥ 3 non-hematologic AEs not related to underlying malignancy; intolerable grade 2 AEs; or toxicity resulting in an inability to deliver 80% of the dose during the first treatment cycle.
The safety population included all patients who received ≥ 1 dose of sitravatinib. […] The PK evaluable population included all patients with sufficient concentration-time data for PK parameter evaluation. The modified intent-to-treat (mITT) population included all phase 1b patients who received ≥ 1 dose of study drug.

COCCNCc1ccc(-c2cc3nccc(Oc4ccc(NC(=O)C5(C(=O)Nc6ccc(F)cc6)CC5)cc4F)c3s2)nc1 [sitravatinib, Sitravatinib]
Patients discontinued due to TRAEs (120 mg): 11.3%
Patients with grade ≥ 3 TRAEs (120 mg arm): 51.6%
Patients with serious TRAEs (120 mg arm): 8.1%
ALT increased TEAE, any grade (120 mg phase 1b): 17 (27.4) n (%)
ALT increased TEAE, grade ≥3 (120 mg phase 1b): 1 (1.6) n (%)
ALT increased TRAE, any grade (120 mg phase 1b): 15 (24.2) n (%)
ALT increased TRAE, grade ≥3 (120 mg phase 1b): 1 (1.6) n (%)
AST increased TEAE, any grade (120 mg phase 1b): 16 (25.8) n (%)
AST increased TEAE, grade ≥3 (120 mg phase 1b): 0 n (%)
AST increased TRAE, any grade (120 mg phase 1b): 14 (22.6) n (%)
AST increased TRAE, grade ≥3 (120 mg phase 1b): 0 n (%)
Abdominal pain TEAE, any grade (120 mg phase 1b): 14 (22.6) n (%)
Abdominal pain TEAE, grade ≥3 (120 mg phase 1b): 3 (4.8) n (%)
Abdominal pain TRAE, any grade (120 mg phase 1b): 8 (12.9) n (%)
Abdominal pain TRAE, grade ≥3 (120 mg phase 1b): 0 n (%)
Anemia TEAE, any grade (120 mg phase 1b): 10 (16.1) n (%)
Anemia TEAE, grade ≥3 (120 mg phase 1b): 3 (4.8) n (%)
Any TEAE (120 mg phase 1b): 60 (96.8) n (%)
Any TRAE (120 mg phase 1b): 58 (93.5) n (%)
Asthenia TEAE, any grade (120 mg phase 1b): 7 (11.3) n (%)
Asthenia TEAE, grade ≥3 (120 mg phase 1b): 0 n (%)
Back pain TEAE, any grade (120 mg phase 1b): 6 (9.7) n (%)
Back pain TEAE, grade ≥3 (120 mg phase 1b): 0 n (%)
Blood and lymphatic system disorders TEAE, any grade (120 mg phase 1b): 16 (25.8) n (%)
Blood and lymphatic system disorders TEAE, grade ≥3 (120 mg phase 1b): 7 (11.3) n (%)
Blood creatinine increased TEAE, any grade (120 mg phase 1b): 3 (4.8) n (%)
Blood creatinine increased TEAE, grade ≥3 (120 mg phase 1b): 0 n (%)
Cardiac disorders TEAE, any grade (120 mg phase 1b): 6 (9.7) n (%)
Cardiac disorders TEAE, grade ≥3 (120 mg phase 1b): 2 (3.2) n (%)
Constipation TEAE, any grade (120 mg phase 1b): 21 (33.9) n (%)
Constipation TEAE, grade ≥3 (120 mg phase 1b): 0 n (%)
Constipation TRAE, any grade (120 mg phase 1b): 11 (17.7) n (%)
Constipation TRAE, grade ≥3 (120 mg phase 1b): 0 n (%)
Cough TEAE, any grade (120 mg phase 1b): 7 (11.3) n (%)
Cough TEAE, grade ≥3 (120 mg phase 1b): 0 n (%)
Decreased appetite TEAE, any grade (120 mg phase 1b): 21 (33.9) n (%)
Decreased appetite TEAE, grade ≥3 (120 mg phase 1b): 2 (3.2) n (%)
Decreased appetite TRAE, any grade (120 mg phase 1b): 17 (27.4) n (%)
Decreased appetite TRAE, grade ≥3 (120 mg phase 1b): 1 (1.6) n (%)
Dehydration TEAE, any grade (120 mg phase 1b): 8 (12.9) n (%)
Dehydration TEAE, grade ≥3 (120 mg phase 1b): 0 n (%)
Diarrhea TEAE, any grade (120 mg phase 1b): 36 (58.1) n (%)
Diarrhea TEAE, grade ≥3 (120 mg phase 1b): 4 (6.5) n (%)
Diarrhea TRAE, any grade (120 mg phase 1b): 31 (50.0) n (%)
Diarrhea TRAE, grade ≥3 (120 mg phase 1b): 4 (6.5) n (%)
Dizziness TEAE, any grade (120 mg phase 1b): 10 (16.1) n (%)
Dizziness TEAE, grade ≥3 (120 mg phase 1b): 0 n (%)
Dizziness TRAE, any grade (120 mg phase 1b): 6 (9.7) n (%)
Dizziness TRAE, grade ≥3 (120 mg phase 1b): 0 n (%)
Dry mouth TEAE, any grade (120 mg phase 1b): 7 (11.3) n (%)
Dry mouth TEAE, grade ≥3 (120 mg phase 1b): 0 n (%)
Dry mouth TRAE, any grade (120 mg phase 1b): 7 (11.3) n (%)
Dry mouth TRAE, grade ≥3 (120 mg phase 1b): 0 n (%)
Dysphonia TEAE, any grade (120 mg phase 1b): 16 (25.8) n (%)
Dysphonia TEAE, grade ≥3 (120 mg phase 1b): 0 n (%)
Dysphonia TRAE, any grade (120 mg phase 1b): 12 (19.4) n (%)
Dysphonia TRAE, grade ≥3 (120 mg phase 1b): 0 n (%)
Dyspnea TEAE, any grade (120 mg phase 1b): 5 (8.1) n (%)
Dyspnea TEAE, grade ≥3 (120 mg phase 1b): 1 (1.6) n (%)
Edema peripheral TEAE, any grade (120 mg phase 1b): 6 (9.7) n (%)
Edema peripheral TEAE, grade ≥3 (120 mg phase 1b): 0 n (%)
Endocrine disorders TEAE, any grade (120 mg phase 1b): 20 (32.3) n (%)
Fatigue TEAE, any grade (120 mg phase 1b): 26 (41.9) n (%)
Fatigue TEAE, grade ≥3 (120 mg phase 1b): 7 (11.3) n (%)
Fatigue TRAE, any grade (120 mg phase 1b): 21 (33.9) n (%)
Fatigue TRAE, grade ≥3 (120 mg phase 1b): 6 (9.7) n (%)
Gastrointestinal disorders TEAE, any grade (120 mg phase 1b): 53 (85.5) n (%)
General disorders and administration site conditions TEAE, any grade (120 mg phase 1b): 38 (61.3) n (%)
General disorders and administration site conditions TEAE, grade ≥3 (120 mg phase 1b): 8 (12.9) n (%)
Headache TEAE, grade ≥3 (120 mg phase 1b): 1 (1.6) n (%)
Hypertension TEAE, any grade (120 mg phase 1b): 25 (40.3) n (%)
Hypertension TEAE, grade ≥3 (120 mg phase 1b): 12 (19.4) 12 (19.4) n (%)
Hypertension TRAE, any grade (120 mg phase 1b): 24 (38.7) n (%)
Hypertension TRAE, grade ≥3 (120 mg phase 1b): 11 (17.7) n (%)
Hypokalemia TEAE, any grade (120 mg phase 1b): 4 (6.5) n (%)
Hypokalemia TEAE, grade ≥3 (120 mg phase 1b): 0 n (%)
Hypomagnesemia TEAE, any grade (120 mg phase 1b): 4 (6.5) n (%)
Hypomagnesemia TEAE, grade ≥3 (120 mg phase 1b): 0 n (%)
Hyponatremia TEAE, any grade (120 mg phase 1b): 6 (9.7) n (%)
Hyponatremia TEAE, grade ≥3 (120 mg phase 1b): 3 (4.8) n (%)
Hypophosphatemia TEAE, any grade (120 mg phase 1b): 3 (4.8) n (%)
Hypophosphatemia TEAE, grade ≥3 (120 mg phase 1b): 1 (1.6) n (%)
Hypothyroidism TEAE, any grade (120 mg phase 1b): 19 (30.6) n (%)
Hypothyroidism TRAE, any grade (120 mg phase 1b): 14 (22.6) n (%)
Hypothyroidism TRAE, grade ≥3 (120 mg phase 1b): 0 n (%)
Infections and infestations TEAE, any grade (120 mg phase 1b): 18 (29.0) n (%)
Infections and infestations TEAE, grade ≥3 (120 mg phase 1b): 7 (11.3) n (%)
Injury, poisoning, procedural complications TEAE, any grade (120 mg phase 1b): 11 (17.7) n (%)
Injury, poisoning, procedural complications TEAE, grade ≥3 (120 mg phase 1b): 0 n (%)
Investigations TEAE, any grade (120 mg phase 1b): 34 (54.8) n (%)
Investigations TEAE, grade ≥3 (120 mg phase 1b): 7 (11.3) n (%)
Lipase increased TEAE, any grade (120 mg phase 1b): 8 (12.9) n (%)
Lipase increased TEAE, grade ≥3 (120 mg phase 1b): 3 (4.8) n (%)
Metabolism and nutrition disorders TEAE, any grade (120 mg phase 1b): 38 (61.3) n (%)
Metabolism and nutrition disorders TEAE, grade ≥3 (120 mg phase 1b): 11 (17.7) n (%)
Musculoskeletal and connective tissue disorders TEAE, any grade (120 mg phase 1b): 28 (45.2) n (%)
Musculoskeletal and connective tissue disorders TEAE, grade ≥3 (120 mg phase 1b): 2 (3.2) n (%)
Nausea TEAE, any grade (120 mg phase 1b): 19 (30.6) n (%)
Nausea TEAE, grade ≥3 (120 mg phase 1b): 0 n (%)
Nausea TRAE, any grade (120 mg phase 1b): 14 (22.6) n (%)
Nausea TRAE, grade ≥3 (120 mg phase 1b): 0 n (%)
Neoplasms benign, malignant, unspecified TEAE, any grade (120 mg phase 1b): 11 (17.7) n (%)
Neoplasms benign, malignant, unspecified TEAE, grade ≥3 (120 mg phase 1b): 8 (12.9) n (%)
Nervous system disorders TEAE, any grade (120 mg phase 1b): 28 (45.2) n (%)
Nervous system disorders TEAE, grade ≥3 (120 mg phase 1b): 3 (4.8) n (%)
PPE syndrome TEAE, any grade (120 mg phase 1b): 14 (22.6) n (%)
PPE syndrome TEAE, grade ≥3 (120 mg phase 1b): 6 (9.7) n (%)
PPE syndrome TRAE, any grade (120 mg phase 1b): 13 (21.0) n (%)
PPE syndrome TRAE, grade ≥3 (120 mg phase 1b): 6 (9.7) n (%)
Pain in extremity TEAE, any grade (120 mg phase 1b): 4 (6.5) n (%)
Pain in extremity TEAE, grade ≥3 (120 mg phase 1b): 0 n (%)
Proteinuria TEAE, any grade (120 mg phase 1b): 13 (21.0) n (%)
Proteinuria TEAE, grade ≥3 (120 mg phase 1b): 2 (3.2) n (%)
Proteinuria TRAE, any grade (120 mg phase 1b): 11 (17.7) n (%)
Proteinuria TRAE, grade ≥3 (120 mg phase 1b): 2 (3.2) n (%)
Psychiatric disorders TEAE, any grade (120 mg phase 1b): 7 (11.3) n (%)
Psychiatric disorders TEAE, grade ≥3 (120 mg phase 1b): 2 (3.2) n (%)
Rash TEAE, any grade (120 mg phase 1b): 9 (14.5) n (%)
Rash TEAE, grade ≥3 (120 mg phase 1b): 2 (3.2) n (%)
Rash TRAE, any grade (120 mg phase 1b): 6 (9.7) n (%)
Rash TRAE, grade ≥3 (120 mg phase 1b): 2 (3.2) n (%)
Renal and urinary disorders TEAE, any grade (120 mg phase 1b): 19 (30.6) n (%)
Renal and urinary disorders TEAE, grade ≥3 (120 mg phase 1b): 5 (8.1) n (%)
Respiratory, thoracic and mediastinal disorders TEAE, any grade (120 mg phase 1b): 34 (54.8) n (%)
Respiratory, thoracic and mediastinal disorders TEAE, grade ≥3 (120 mg phase 1b): 3 (4.8) n (%)
Serious TEAE (120 mg phase 1b): 21 (33.9) n (%)
Serious TRAE (120 mg phase 1b): 5 (8.1) n (%)
Skin and subcutaneous tissue disorders TEAE, any grade (120 mg phase 1b): 33 (53.2) n (%)
Skin and subcutaneous tissue disorders TEAE, grade ≥3 (120 mg phase 1b): 8 (12.9) n (%)
Stomatitis TEAE, any grade (120 mg phase 1b): 11 (17.7) n (%)
Stomatitis TEAE, grade ≥3 (120 mg phase 1b): 1 (1.6) n (%)
Stomatitis TRAE, any grade (120 mg phase 1b): 11 (17.7) n (%)
Stomatitis TRAE, grade ≥3 (120 mg phase 1b): 1 (1.6) n (%)
TEAE grade ≥3 (120 mg phase 1b): 45 (72.6) n (%)
TEAE leading to death (120 mg phase 1b): 8 (12.9) n (%)
TEAE leading to discontinuation (120 mg phase 1b): 12 (19.4) n (%)
TEAE leading to treatment modification (120 mg phase 1b): 46 (74.2) n (%)
TRAE grade ≥3 (120 mg phase 1b): 32 (51.6) n (%)
TRAE leading to death (120 mg phase 1b): 0 n (%)
TRAE leading to discontinuation (120 mg phase 1b): 7 (11.3) n (%)
TRAE leading to treatment modification (120 mg phase 1b): 42 (67.7) n (%)
UTI TEAE, any grade (120 mg phase 1b): 6 (9.7) n (%)
UTI TEAE, grade ≥3 (120 mg phase 1b): 1 (1.6) n (%)
Vascular disorders TEAE, any grade (120 mg phase 1b): 32 (51.6) n (%)
Vascular disorders TEAE, grade ≥3 (120 mg phase 1b): 12 (19.4) 12 (19.4) n (%)
Vomiting TEAE, any grade (120 mg phase 1b): 12 (19.4) n (%)
Vomiting TEAE, grade ≥3 (120 mg phase 1b): 0 n (%)
Vomiting TRAE, any grade (120 mg phase 1b): 9 (14.5) n (%)
Vomiting TRAE, grade ≥3 (120 mg phase 1b): 0 n (%)
Weight decreased TEAE, any grade (120 mg phase 1b): 10 (16.1) n (%)
Weight decreased TEAE, grade ≥3 (120 mg phase 1b): 0 n (%)
Weight decreased TRAE, any grade (120 mg phase 1b): 7 (11.3) n (%)
Weight decreased TRAE, grade ≥3 (120 mg phase 1b): 0 n (%)
Patients discontinued due to TRAEs (150 mg): 17.2%
Patients with grade ≥ 3 TRAEs (150 mg arm): 61.6%
Patients with serious TRAEs (150 mg arm): 22.2%
ALT increased TEAE, any grade (150 mg phase 1b): 25 (25.3) n (%)
ALT increased TEAE, grade ≥3 (150 mg phase 1b): 3 (3.0) n (%)
